Values quoted from earlier work as cited in article PMC7692329, “Inhibitory Effect of AB-PINACA, Indazole Carboxamide Synthetic Cannabinoid, on Human Major Drug-Metabolizing Enzymes and Transporters” (Pharmaceutics, 2020).
Where two headings read alike, the source gives them in different places.

Legend:
CYP2C8 = conditions: cited from earlier work
CYP3A4 = conditions: cited from earlier work
CYP2C19 = conditions: cited from earlier work
CYP2C9 = conditions: cited from earlier work
CYP2D6 = conditions: read-out: Ki, CYP2D6; cited from earlier work
CYP2B6 = conditions: read-out: Ki, CYP2B6; cited from earlier work
[1] = child, chewing an AB-PINACA contaminated cigarette; cited from earlier work
UGT2B7 = tested on: UGT2B7; set-up: method as in PMID 28287454; conditions: cited from earlier work
UGT1A3 = conditions: cited from earlier work
[2] = tested on: OCT1/2, OAT1/3, and OATP1B1/1B3; set-up: method as in PMID 31430908; conditions: cited from earlier work
UGT1A9 = conditions: read-out: Ki, UGT1A9; noncompetitive inhibition; cited from earlier work
CES1 = tested on: CES1; set-up: method as in PMID 25346527; conditions: 100 μM benzil, human liver microsomes; cited from earlier work
[3] = read-out: Ki, CYP3A4 (time-dependent), time-dependent inhibition

**Q.** Which Ki (CYP2C8; read-out: Ki, CYP2C8) does the source give for `CC(C)C(NC(=O)c1nn(Cc2ccc(F)cc2)c2ccccc12)C(N)=O` (stereo not shown) [AB-FUBINACA, N-(1-amino-3-methyl-1-oxobutan-2-yl)-1-(4-fluorobenzyl)-1H-indazole-3-carboxamide] here?
**A.** Its Ki is 19.9 µM.

**Q.** And the “inhibition of CYP3A4” value (CYP3A4)?
**A.** The value was “did not inhibited”.

**Q.** What about the Ki (CYP2C19; read-out: Ki, CYP2C19) of the same compound?
**A.** Its Ki is 6.3 µM.

**Q.** And the Ki (CYP2C9; read-out: Ki, CYP2C9)?
**A.** The Ki was 13.1 µM.

**Q.** And the Ki (CYP2D6)?
**A.** The Ki was 20.8 µM.

**Q.** And the Ki (CYP2B6)?
**A.** The Ki was 15 µM.

**Q.** For `CC(C)C(NC(=O)c1nn(CCCCC(=O)O)c2ccccc12)C(N)=O` (stereo not shown) [AB-PINACA pentanoic acid], which serum level [1] is on record?
**A.** Its serum level is 345 ng/mL.

**Q.** What does the source list for `O=C(c1cccc2ccccc12)c1cn(CCCCCF)c2ccccc12` [AM-2201]?
**A.** IC50 (UGT2B7): 10 µM; IC50 (CYP3A4; read-out: IC50, CYP3A4): 4 µM; IC50 (UGT1A3): 4.3 µM; IC50 (CYP2C9; read-out: IC50, CYP2C9): 3.9 µM

**Q.** For `CCCCCn1nc(C(=O)NC23CC4CC(CC(C4)C2)C3)c2ccccc21` [APINACA, N-(1-adamantyl)-1-pentyl-1H-indazole-3-carboxamide], which “inhibition of transport activity of OCT1/2, OAT1/3, and OATP1B1/1B3” value [2] is on record?
**A.** Its value is “did not inhibit”.

**Q.** What about the Ki (UGT1A9) of the same compound?
**A.** The Ki was 5.9 µM.

**Q.** What about the Ki (CYP3A4; [3]) of the same compound?
**A.** Its Ki is 4.5 µM.

**Q.** What about the “kinact, CYP3A4” value (CYP3A4; time-dependent inhibition) of the same compound?
**A.** The value was 0.04686 min⁻¹.

**Q.** What about the “kinact/Ki, CYP3A4” value (CYP3A4; time-dependent inhibition) of the same compound?
**A.** The value was 172 M⁻¹ s⁻¹.

**Q.** For `CCc1ccc(C(=O)c2cn(CCCCCF)c3ccccc23)c2ccccc12` [EAM-2201], which Ki (CYP2C8; read-out: Ki, CYP2C8 (time-dependent), time-dependent inhibition) is on record?
**A.** The Ki was 0.54 µM.

**Q.** What about the “kinact, CYP2C8” value (CYP2C8; time-dependent inhibition) of the same compound?
**A.** The value was 0.0633 min⁻¹.

**Q.** What about the Ki (CYP3A4; [3]) of the same compound?
**A.** Its Ki is 4.1 µM.

**Q.** And the “kinact, CYP3A4” value (CYP3A4; time-dependent inhibition)?
**A.** The value was 0.0250 min⁻¹.

**Q.** What about the “kinact/Ki, CYP3A4” value (CYP3A4; time-dependent inhibition) of the same compound?
**A.** The value was 115 M⁻¹ s⁻¹.

**Q.** And the Ki (CYP2C19; read-out: Ki, CYP2C19 (time-dependent), time-dependent inhibition)?
**A.** The Ki was 3.8 µM.

**Q.** What about the “kinact, CYP2C19” value (CYP2C19; time-dependent inhibition) of the same compound?
**A.** Its value is 0.0264 min⁻¹.

**Q.** What about the Ki (UGT1A3; competitive inhibition) of the same compound?
**A.** The Ki was 2.4 µM.

**Q.** And the Ki (CYP2C9; read-out: Ki, CYP2C9 (time-dependent), time-dependent inhibition)?
**A.** The Ki was 3 µM.

**Q.** And the “kinact, CYP2C9” value (CYP2C9; time-dependent inhibition)?
**A.** Its value is 0.0462 min⁻¹.

**Q.** With `Cc1ccc(C(=O)c2cn(CCCCCF)c3ccccc23)c2ccccc12` [MAM-2201] as the compound, how does the Ki (CYP3A4; read-out: Ki, CYP3A4) read?
**A.** The Ki was 5.4 µM.

**Q.** And the Ki (UGT1A3)?
**A.** The Ki was 5 µM.

**Q.** And the Ki (CYP2C9; read-out: Ki, CYP2C9)?
**A.** Its Ki is 5.6 µM.

**Q.** Which “effect on formation of AB-PINACA carboxylic acid” value (CES1) does the source give for `O=C(C(=O)c1ccccc1)c1ccccc1` [benzil] here?
**A.** The value was “abolished”.

**Q.** For `CC[C@H]1OC(=O)[C@H](C)[C@@H](O[C@H]2C[C@@](C)(OC)[C@@H](O)[C@H](C)O2)[C@H](C)[C@@H](O[C@@H]2O[C@H](C)C[C@H](N(C)C)[C@H]2O)[C@](C)(OC)C[C@@H](C)C(=O)[C@H](C)[C@@H](O)[C@]1(C)O` [clarithromycin], which “inactivation efficiency (kinact/Ki), CYP3A4” value (CYP3A4; representative clinical CYP3A4-mediated drug interactions) is on record?
**A.** The value was 46.7 M⁻¹ s⁻¹.
